The text below walks through data of patent publication US12441726B2, “Compounds and uses thereof” (Foghorn Therapeutics Inc., priority 2020, dated 2025).

One test addresses BRG-1 (Homo sapiens, UniProt P51532). Description: ATPase catalytic activity assay (ADP-Glo), BRG-1. Particulars: for Emax: 1 h, read-out: BRG1 Max % Inhibition, ADP-Glo, 30 nM BRG-1, 400 μM ATP.
The next test concerns the target BRM (Homo sapiens, UniProt P51531). Description: ATPase catalytic activity assay (ADP-Glo), BRM. Particulars: 30 nM BRM, 400 μM ATP; for IC50: BRM ATPase: IC50 (uM).

Each structure is given as a SMILES string.

BRM, sequence (P51531 whole entry): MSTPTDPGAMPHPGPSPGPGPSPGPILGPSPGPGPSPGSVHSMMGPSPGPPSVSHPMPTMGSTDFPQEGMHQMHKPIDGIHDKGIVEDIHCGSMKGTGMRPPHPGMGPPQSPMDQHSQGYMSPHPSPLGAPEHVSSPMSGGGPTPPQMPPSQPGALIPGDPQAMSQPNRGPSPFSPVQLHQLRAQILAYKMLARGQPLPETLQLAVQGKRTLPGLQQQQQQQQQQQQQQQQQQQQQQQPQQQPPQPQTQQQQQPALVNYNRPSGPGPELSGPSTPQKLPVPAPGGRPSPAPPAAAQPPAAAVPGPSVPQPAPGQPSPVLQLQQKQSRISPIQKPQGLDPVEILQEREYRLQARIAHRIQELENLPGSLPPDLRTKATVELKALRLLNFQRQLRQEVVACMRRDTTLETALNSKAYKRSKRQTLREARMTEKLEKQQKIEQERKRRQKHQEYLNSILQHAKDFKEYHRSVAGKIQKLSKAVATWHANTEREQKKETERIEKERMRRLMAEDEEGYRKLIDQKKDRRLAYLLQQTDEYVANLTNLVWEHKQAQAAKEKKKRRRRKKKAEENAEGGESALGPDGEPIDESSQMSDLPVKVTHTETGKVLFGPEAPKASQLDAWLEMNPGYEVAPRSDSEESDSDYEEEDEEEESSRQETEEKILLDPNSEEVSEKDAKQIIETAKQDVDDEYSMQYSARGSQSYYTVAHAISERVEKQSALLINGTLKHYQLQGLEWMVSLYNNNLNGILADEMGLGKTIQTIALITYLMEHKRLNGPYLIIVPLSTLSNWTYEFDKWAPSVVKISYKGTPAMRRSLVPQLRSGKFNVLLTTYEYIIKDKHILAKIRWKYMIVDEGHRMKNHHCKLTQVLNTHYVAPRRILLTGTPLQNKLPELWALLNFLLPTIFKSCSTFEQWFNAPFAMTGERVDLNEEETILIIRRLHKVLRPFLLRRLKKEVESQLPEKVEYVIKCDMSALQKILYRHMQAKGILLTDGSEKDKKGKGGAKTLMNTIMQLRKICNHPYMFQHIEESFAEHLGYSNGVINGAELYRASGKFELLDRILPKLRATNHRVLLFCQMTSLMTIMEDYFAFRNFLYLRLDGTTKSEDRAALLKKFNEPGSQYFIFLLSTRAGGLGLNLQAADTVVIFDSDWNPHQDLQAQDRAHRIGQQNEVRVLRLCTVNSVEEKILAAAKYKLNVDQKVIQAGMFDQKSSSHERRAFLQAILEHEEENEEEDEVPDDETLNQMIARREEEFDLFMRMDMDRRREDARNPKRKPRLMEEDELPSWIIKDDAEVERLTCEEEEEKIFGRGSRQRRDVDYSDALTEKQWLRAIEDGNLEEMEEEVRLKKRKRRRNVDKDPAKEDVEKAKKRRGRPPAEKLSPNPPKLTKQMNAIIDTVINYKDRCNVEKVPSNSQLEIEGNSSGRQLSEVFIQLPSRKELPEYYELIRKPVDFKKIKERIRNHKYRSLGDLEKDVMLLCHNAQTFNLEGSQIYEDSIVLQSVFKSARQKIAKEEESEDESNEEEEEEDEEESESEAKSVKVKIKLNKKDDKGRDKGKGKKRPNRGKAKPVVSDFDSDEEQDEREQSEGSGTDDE
BRG-1, sequence (P51532 whole entry): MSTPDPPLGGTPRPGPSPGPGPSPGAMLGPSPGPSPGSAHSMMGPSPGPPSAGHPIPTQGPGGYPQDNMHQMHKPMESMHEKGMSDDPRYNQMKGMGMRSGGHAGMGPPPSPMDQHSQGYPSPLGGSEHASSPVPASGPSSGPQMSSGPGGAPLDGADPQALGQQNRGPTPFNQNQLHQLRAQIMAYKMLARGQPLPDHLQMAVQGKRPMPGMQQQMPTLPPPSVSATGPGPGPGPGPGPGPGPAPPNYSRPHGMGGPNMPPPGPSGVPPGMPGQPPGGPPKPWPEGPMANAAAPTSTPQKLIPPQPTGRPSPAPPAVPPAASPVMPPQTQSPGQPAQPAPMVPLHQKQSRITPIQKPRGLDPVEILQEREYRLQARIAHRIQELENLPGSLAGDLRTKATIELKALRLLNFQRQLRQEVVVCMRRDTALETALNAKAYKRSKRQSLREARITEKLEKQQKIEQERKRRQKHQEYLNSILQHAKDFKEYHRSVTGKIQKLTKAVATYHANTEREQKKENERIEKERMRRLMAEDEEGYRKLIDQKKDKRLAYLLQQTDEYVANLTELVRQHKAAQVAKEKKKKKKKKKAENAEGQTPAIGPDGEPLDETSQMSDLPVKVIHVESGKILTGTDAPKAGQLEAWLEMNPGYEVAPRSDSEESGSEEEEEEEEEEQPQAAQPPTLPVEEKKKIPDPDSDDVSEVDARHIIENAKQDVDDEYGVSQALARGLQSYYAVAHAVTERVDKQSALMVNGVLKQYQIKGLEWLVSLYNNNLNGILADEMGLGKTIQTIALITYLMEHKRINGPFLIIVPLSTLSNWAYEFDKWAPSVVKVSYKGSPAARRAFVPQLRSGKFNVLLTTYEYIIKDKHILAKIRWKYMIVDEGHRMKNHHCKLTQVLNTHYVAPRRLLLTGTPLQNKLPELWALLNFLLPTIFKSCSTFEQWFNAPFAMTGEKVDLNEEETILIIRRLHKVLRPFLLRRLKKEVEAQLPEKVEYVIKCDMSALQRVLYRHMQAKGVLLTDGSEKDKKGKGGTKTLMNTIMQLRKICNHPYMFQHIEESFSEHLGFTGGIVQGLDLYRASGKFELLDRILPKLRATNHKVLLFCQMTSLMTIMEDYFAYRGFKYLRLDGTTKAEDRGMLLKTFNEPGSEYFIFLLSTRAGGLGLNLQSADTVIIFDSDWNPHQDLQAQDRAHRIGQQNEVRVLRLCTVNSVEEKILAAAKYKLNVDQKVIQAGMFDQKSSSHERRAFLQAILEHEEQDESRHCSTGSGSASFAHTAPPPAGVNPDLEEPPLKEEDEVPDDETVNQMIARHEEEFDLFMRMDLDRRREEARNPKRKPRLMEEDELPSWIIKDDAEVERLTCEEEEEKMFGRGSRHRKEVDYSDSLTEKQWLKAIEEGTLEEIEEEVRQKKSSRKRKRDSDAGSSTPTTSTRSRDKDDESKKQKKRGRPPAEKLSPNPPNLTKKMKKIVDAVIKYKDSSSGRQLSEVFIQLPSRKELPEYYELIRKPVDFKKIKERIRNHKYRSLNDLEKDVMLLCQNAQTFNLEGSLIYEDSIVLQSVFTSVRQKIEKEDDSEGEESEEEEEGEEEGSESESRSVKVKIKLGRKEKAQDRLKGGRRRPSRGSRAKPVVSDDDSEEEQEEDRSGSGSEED

On to `C[C@@]1(F)COCc2ccc(C(=O)NCc3cc4nc(-c5cccc(C6(O)CC6)n5)ccc4cn3)cc21` [Compound 271], for which, at BRG-1, the IC50 lay within 100 to 500 nM and the Emax is 95%. Besides, at BRM, the “BRM Max % Inhibition” value turned out to be 104% and the IC50 is less than 0.1 µM.
As to `C[C@@]1(C#N)COCc2ccc(C(=O)NCc3cc4cc(-c5ccnc(N6CCC6)c5F)ccc4cn3)cc21` [Compound 272], at BRG-1, the IC50 was in the range of 100 to 500 nM and the Emax worked out at 95%. In addition, at BRM, the “BRM Max % Inhibition” value amounted to 104% and the IC50 was less than 0.1 µM.
Turning to `C[C@@]1(F)COCc2ccc(C(=O)NCc3cc4nc(-c5cccc(N=S(C)(C)=O)n5)ccc4cn3)cc21` [Compound 273], on BRG-1, the IC50 was 500 to 1000 nM and the Emax was 64%. Also, on BRM, the “BRM Max % Inhibition” value was 98% and the IC50 was 0.1 to 0.5 µM.
Take `COc1nn(C)cc1-c1nc2cc(CNC(=O)c3ccc4c(c3)[C@](C)(C#N)COC4)ncc2s1` [Compound 274]: on BRG-1, the IC50 lay within 500 to 1000 nM and the Emax was determined as 45%. On BRM, the “BRM Max % Inhibition” value is recorded as 93% and the IC50 fell in the range of 0.1 to 0.5 µM.
For `COc1nn(C)cc1-c1ccc2nnc(CNC(=O)c3ccc4c(c3)[C@](C)(F)COC4)cc2n1` [Compound 275], on BRG-1, the IC50 lay in the range of 500 to 1000 nM and the Emax was determined as 77%. For the same compound, at BRM, the “BRM Max % Inhibition” value was 96% and the 50% inhibitory concentration (IC50) was less than 0.1 µM.
For `C[C@@]1(F)COCc2ccc(C(=O)NCc3cc4nc(-c5cncc(N6CCC6)n5)ccc4nn3)cc21` [Compound 276], on BRG-1, the IC50 lay in the range of 100 to 500 nM and the Emax is 95%. On BRM, the “BRM Max % Inhibition” value stood at 98% and the IC50 is less than 0.1 µM.
The corresponding values for `C[C@@]1(F)COCc2ccc(C(=O)NCc3cc4nc(-c5ccccc5)ccc4nn3)cc21` [Compound 277] are 500 to 1000 nM, 69%, 96% and 0.1 to 0.5 µM.
`COCCOCCC(=O)N1CCN(c2cccc(-c3ccc4cnc(CNC(=O)c5ccc6c(c5)[C@](C)(C#N)COC6)cc4n3)n2)CC1` [Compound 278]: on BRG-1, the IC50 fell in the range of 100 to 500 nM and the Emax was 96%. On BRM, the “BRM Max % Inhibition” value turned out to be 101% and the IC50 is less than 0.1 µM.
As to `C[C@@]1(F)COCc2ccc(C(=O)NCc3cc4nc(N5CCN(C6CC6)S5(=O)=O)ccc4cn3)cc21` [Compound 279], on BRG-1, the IC50 fell in the range of 500 to 1000 nM and the Emax stood at 67%. Also, at BRM, the “BRM Max % Inhibition” value came out at 83% and the IC50 was 0.1 to 0.5 µM.
Consider `C[C@@]1(C#N)COCc2ccc(C(=O)NCc3cc4cc(-c5ccnc(C6CC6)c5F)cnc4cn3)cc21` [Compound 280], for which, on BRG-1, the IC50 lay in the range of 100 to 500 nM and the Emax is 82%. Besides, on BRM, the “BRM Max % Inhibition” value is 96% and the IC50 is 0.1 to 0.5 µM.
As to `CN(C)c1cccn(-c2ccc3cnc(CNC(=O)c4ccc5c(c4)[C@](C)(C#N)COC5)cc3n2)c1=O` [Compound 281], at BRG-1, the IC50 was greater than 1000 nM and the Emax came to 48%. Also, at BRM, the “BRM Max % Inhibition” value came to 92% and the IC50 is 0.1 to 0.5 µM.
Take `C[C@@]1(C#N)COCc2ccc(C(=O)NCc3cc4nc(-n5cccc(C6CC6)c5=O)ccc4cn3)cc21` [Compound 282]: at BRG-1, the IC50 was greater than 1000 nM and the Emax is 45%. For the same compound, at BRM, the “BRM Max % Inhibition” value is 87% and the half-maximal inhibitory concentration (IC50) lay within 0.1 to 0.5 µM.
As to `C[C@@]1(C#N)COCc2ccc(C(=O)NCc3cc4nc(-n5cccc(N6CCC6)c5=O)ccc4cn3)cc21` [Compound 283], on BRG-1, the half-maximal inhibitory concentration (IC50) lay within 500 to 1000 nM and the Emax was 63%. In addition, at BRM, the “BRM Max % Inhibition” value amounted to 96% and the IC50 is 0.1 to 0.5 µM.
With `C[C@@]1(C#N)COCc2ccc(C(=O)NCc3cc4nc(-c5ccnc(N6CC7CC(C6)O7)n5)ccc4cn3)cc21` [Compound 284], on BRG-1, the IC50 was in the range of 100 to 500 nM and the Emax was found to be 93%. Moreover, on BRM, the “BRM Max % Inhibition” value turned out to be 99% and the IC50 is less than 0.1 µM.
As to `C[C@@]1(C#N)COCc2ccc(C(=O)NCc3cc4nc(-c5ccnc(N6CC7CC6C7)n5)ccc4cn3)cc21` [Compound 285], at BRG-1, the IC50 was 100 to 500 nM and the Emax was 92%. In addition, on BRM, the “BRM Max % Inhibition” value turned out to be 98% and the IC50 was less than 0.1 µM.
As to `C[C@@]1(C#N)COCc2ccc(C(=O)NCc3cc4c(cn3)CCN(c3ccccn3)C4)cc21` [Compound 286], at BRG-1, the IC50 was greater than 1000 nM and the Emax stood at 43%. Moreover, on BRM, the “BRM Max % Inhibition” value turned out to be 85% and the IC50 is 0.1 to 0.5 µM.
For `CN1CCC(C(=O)N2CCN(c3cccc(-c4ccc5cnc(CNC(=O)c6ccc7c(c6)[C@](C)(C#N)COC7)cc5n4)n3)CC2)CC1` [Compound 287], at BRG-1, the IC50 lay in the range of 500 to 1000 nM and the Emax is 99%. Besides, on BRM, the “BRM Max % Inhibition” value stood at 99% and the IC50 is less than 0.1 µM.
As for `COCCC(=O)N1CCN(c2cccc(-c3ccc4cnc(CNC(=O)c5ccc6c(c5)[C@](C)(C#N)COC6)cc4n3)n2)CC1` [Compound 288], on BRG-1, the IC50 is 100 to 500 nM and the Emax was found to be 98%. For the same compound, on BRM, the “BRM Max % Inhibition” value turned out to be 101% and the IC50 is less than 0.1 µM.
The corresponding values for `Cn1cc(-c2nc3cc(CNC(=O)c4ccc5c(c4)[C@](C)(C#N)COC5)ncc3s2)cn1` [Compound 289] are greater than 1000 nM, 41%, 90% and 0.1 to 0.5 µM.
On to `C[C@@]1(F)COCc2ncc(C(=O)NCc3cc4nc(-c5ccccc5)sc4cn3)cc21` [Compound 290], for which, on BRG-1, the IC50 fell in the range of 500 to 1000 nM and the Emax came to 53%. Besides, on BRM, the “BRM Max % Inhibition” value turned out to be 94% and the IC50 lay within 0.1 to 0.5 µM.
The corresponding values for `C[C@@]1(C#N)COCc2ccc(C(=O)NCc3cc4nc(-c5cncc(N6CC[C@@H](F)C6)n5)ccc4cn3)cc21` [Compound 291] are less than 100 nM, 97%, 100% and less than 0.1 µM.
With `C[C@@]1(F)COCc2ccc(C(=O)NCc3cc4nc(-c5ccnc(N6CCN(C7COC7)CC6)n5)ccc4cn3)cc21` [Compound 292], on BRG-1, the IC50 was in the range of 100 to 500 nM and the Emax worked out at 94%. Also, on BRM, the “BRM Max % Inhibition” value worked out at 99% and the IC50 is less than 0.1 µM.
With `Cn1nccc(-c2ccc3cnc(CNC(=O)c4ccc5c(c4)[C@](C)(F)COC5)cc3n2)c1=O` [Compound 293], at BRG-1, the IC50 is greater than 1000 nM and the Emax turned out to be 33%. Also, on BRM, the “BRM Max % Inhibition” value was found to be 88% and the IC50 lay in the range of 0.1 to 0.5 µM.
Regarding `C[C@@]1(C#N)COCc2ccc(C(=O)NCc3cc4cc(-c5ccnc(N6CCC6)c5F)cnc4cn3)cc21` [Compound 294], on BRG-1, the IC50 was 100 to 500 nM and the Emax is 86%. On BRM, the “BRM Max % Inhibition” value was found to be 100% and the IC50 was less than 0.1 µM.
The like results for `C[C@@]1(F)COCc2ccc(C(=O)NCc3cc4nc(-c5cccc(N6CCC6)n5)ccc4cn3)cc21` [Compound 295] were, in that order, 100 to 500 nM, 93%, 100% and less than 0.1 µM.
As to `C[C@@]1(F)COCc2ncc(C(=O)NCc3cc4nc(-c5ccnc(N6CCC6)c5F)ccc4cn3)cc21` [Compound 296], on BRG-1, the IC50 fell in the range of 100 to 500 nM and the Emax came to 88%. At BRM, the “BRM Max % Inhibition” value is listed as 100% and the IC50 is less than 0.1 µM.
As for `COc1cnn(C)c1-c1ccc2cnc(CNC(=O)c3ccc4c(c3)[C@](C)(C#N)COC4)cc2n1` [Compound 297], at BRG-1, the IC50 fell in the range of 500 to 1000 nM and the Emax worked out at 66%. On BRM, the “BRM Max % Inhibition” value is listed as 96% and the IC50 lay within 0.1 to 0.5 µM.
Regarding `C[C@@]1(C#N)COCc2ccc(C(=O)NCc3cc4c(cn3)CCN(c3cncc(N5CCC5)n3)C4)cc21` [Compound 298], on BRG-1, the half-maximal inhibitory concentration (IC50) lay within 100 to 500 nM and the Emax came to 82%. Further, on BRM, the “BRM Max % Inhibition” value was determined as 99% and the half-maximal inhibitory concentration (IC50) is less than 0.1 µM.
As to `CC(F)(F)c1cncc(-c2ccc3cnc(CNC(=O)c4ccc5c(c4)[C@](C)(C#N)COC5)cc3n2)n1` [Compound 299], on BRG-1, the IC50 was 500 to 1000 nM and the Emax was found to be 78%. Further, at BRM, the “BRM Max % Inhibition” value is listed as 99% and the concentration for half-maximal inhibition (IC50) is less than 0.1 µM.
With `C[C@@]1(F)COCc2ccc(C(=O)NCc3cc4nc(-c5ccccc5)sc4cn3)cc21` [Compound 300], on BRG-1, the IC50 was 500 to 1000 nM and the Emax came out at 63%. Further, at BRM, the “BRM Max % Inhibition” value was 99% and the half-inhibitory concentration (IC50) was 0.1 to 0.5 µM.
The corresponding values for `C[C@@]1(F)COCc2ncc(C(=O)NCc3cc4nc(-c5cncc(C6CC6)n5)ccc4cn3)cc21` [Compound 301] are 100 to 500 nM, 86%, 96% and less than 0.1 µM.
For the compound `C[C@@]1(F)COCc2ccc(C(=O)NCc3cc4nc(-c5cccc(C6(O)CCOCC6)n5)ccc4cn3)cc21` [Compound 302], on BRG-1, the IC50 was 500 to 1000 nM and the Emax worked out at 58%. Besides, on BRM, the “BRM Max % Inhibition” value stood at 93% and the IC50 lay within 0.1 to 0.5 µM.
On to `C[C@@]1(C#N)COCc2ccc(C(=O)NCc3cc4nc(N5Cc6ccccc6C5=O)ccc4cn3)cc21` [Compound 303], for which, at BRG-1, the IC50 is 100 to 500 nM and the Emax came to 87%. Also, on BRM, the “BRM Max % Inhibition” value was determined as 96% and the IC50 was in the range of 0.1 to 0.5 µM.
On to `C[C@@]1(C#N)COCc2ccc(C(=O)NCc3cc4c(cn3)CCN(c3cccc(C(F)F)n3)C4)cc21` [Compound 304], for which, on BRG-1, the IC50 is greater than 1000 nM and the Emax stood at 38%. For the same compound, at BRM, the “BRM Max % Inhibition” value turned out to be 86% and the IC50 is 0.1 to 0.5 µM.
For the compound `Cn1cc(-c2ccc3cnc(CNC(=O)c4ccc5c(c4)[C@](C)(F)COC5)cc3n2)c(C#N)n1` [Compound 305], at BRG-1, the IC50 is greater than 1000 nM and the Emax stood at 40%. On BRM, the “BRM Max % Inhibition” value amounted to 87% and the IC50 fell in the range of 0.1 to 0.5 µM.
